Columns and labels:
CEL [1] = assay: CEL expression at the protein level in treated macrophages (Western blot); assay type: cell-based, human; details: monocyte-derived macrophages cultured for 7 days, treated for 24 hours; LPS 1 μg/ml, IFN-γ 200 U/ml, oxLDL 50 μg protein/ml; cells from four donors; FIG. 4B
Procedure: Macrophage cell culture. Mononuclear cells were isolated through a Ficoll-Hypaque discontinuous gradient (Boyum et al. 1976) from buffy coats obtained from the local blood bank (Sahlgrenska University Hospital, Göteborg, Sweden). The cells were resuspended in RPMI 1640 medium (PM Laboratories GmbH, Pasching, Austria) supplemented with 2 mmol/l glutamine, 2 mmol/l nonessential amino acids, 100 U/ml penicillin, 100 μg/ml streptomycin, and 20 mmol/l sodium pyruvate. Monocytes were obtained by allowing cells to adhere to plastic for 60 min at 37° C. Non-adhered cells were removed by washing with PBS and the adhered monocytes were used immediately or after 4 hours for experiments or left to differentiate into macrophages in supplemented RPMI1640 containing 20% heat-inactivated human serum for up to 9 days. Macrophages were then approximately 95% pure, as judged by flow cytometry. […] The viability of cells was >95% in all incubations, as determined by Trypan blue exclusion.
Exposure of macrophages to oxidatively modified LDL. […] Protein concentration of lipoproteins was determined with the BioRad protein assay using γ-globulin as standard.
Western blot analysis. […] The primary antibodies were detected with POD-conjugated secondary IgG and ECL™ Western Blotting Detection Reagents (Amersham Biosciences), visualized on ECL™ films (Amersham Biosciences).

CEL [2] = assay: CEL expression at the mRNA level in treated macrophages (RT-PCR); assay type: cell-based, human; details: monocyte-derived macrophages cultured for 7 days, treated for 24 hours; LPS 1 μg/ml, IFN-γ 200 U/ml, oxLDL 50 μg protein/ml; cells from four donors; FIG. 4C
Procedure: Macrophage cell culture. Mononuclear cells were isolated through a Ficoll-Hypaque discontinuous gradient (Boyum et al. 1976) from buffy coats obtained from the local blood bank (Sahlgrenska University Hospital, Göteborg, Sweden). The cells were resuspended in RPMI 1640 medium (PM Laboratories GmbH, Pasching, Austria) supplemented with 2 mmol/l glutamine, 2 mmol/l nonessential amino acids, 100 U/ml penicillin, 100 μg/ml streptomycin, and 20 mmol/l sodium pyruvate. Monocytes were obtained by allowing cells to adhere to plastic for 60 min at 37° C. Non-adhered cells were removed by washing with PBS and the adhered monocytes were used immediately or after 4 hours for experiments or left to differentiate into macrophages in supplemented RPMI1640 containing 20% heat-inactivated human serum for up to 9 days. Macrophages were then approximately 95% pure, as judged by flow cytometry. For experiments the cells were incubated for 24 h with supplemented RPMI1640 (pH 7.4) with 1 μg/mL lipopolysaccaride (LPS), interferon-gamma (γ-IFN) 200 U/mL (Sigma Aldrich, Stockholm, Sweden). The viability of cells was >95% in all incubations, as determined by Trypan blue exclusion.
Exposure of macrophages to oxidatively modified LDL. […] Protein concentration of lipoproteins was determined with the BioRad protein assay using γ-globulin as standard. […]

For lipopolysaccharide [LPS], the “CEL expression at the protein level” value (CEL [1]) was “could not detect any consistent increase or decrease in CEL expression” and the “CEL expression at the mRNA level” value (CEL [2]) was “could not detect any consistent increase or decrease in CEL expression”.

B1: interferon-gamma (protein, UniProt P01579 24-161, looked up)
Interferon gamma: QDPYVKEAENLKKYFNAGHSDVADNGTLFLGILKNWKEESDRKIMQSQIVSFYFKLFKNFKDDQSIQKSVETIKEDMNVKFFNSNKKKRDDFEKLTNYSVTDLNVQRKAIHELIQVMAELSPAAKTGKRKRSQMLFRG
notes: interferon-gamma (Sigma Aldrich) used as stimulus on macrophages
With B1 the “CEL expression at the protein level” value (CEL [1]) was “could not detect any consistent increase or decrease in CEL expression” and the “CEL expression at the mRNA level” value (CEL [2]) was “could not detect any consistent increase or decrease in CEL expression”.

Reference: US20080262108A1, “Method” (priority 2004, published 2008)
